Read-outs that look alike come from different tables or passages of the source. A value given as a limit tells only on which side of the number the result lay.

This is an account of results in patent publication US9789089B2 (Gilead Sciences, Inc., priority 2013, dated 2017).

For one series, the system named is HIV-IIIb. The series can be described thus: Test A: Antiviral Assay in MT4 Cells. The format is cell-based, HIV-1. The note with it: read-out: % inhibition at 6 μM. Here is the method: Test A: Antiviral Assay in MT4 Cells
(§1) For the antiviral assay, 40 μL of 1× test concentration of 3-fold serially diluted compound in culture medium with 10% FBS was added to each well of a 384-well plate (10 concentrations) in quadruplicate. MT-4 cells were next mixed with HIV-IIIb at an m.o.i of 0.003 for 1 hour, after which time 35 μL of virus/cell mixture (2000 cells) was immediately added to each well containing 40 μL of diluted compound. The plates were then incubated at 37° C. for 5 days. After 5 days of incubation, 25 μl of 2× concentrated CellTiter-Glo™ Reagent (catalog #G7571, Promega Biosciences, Inc., Madison, Wis.) was added to each well containing MT-4 cells. Cell lysis was carried out by incubating at room temperature for 10 min and then chemiluminescence was read.

The nature of series [1]: Test B: Cytotoxicity assay. The format is cell-based. The conditions noted are these: human, uninfected MT-4 cells, same protocol as Test A, CellTiter-Glo. Here is the method: as §1
Test B:Cytotoxicity assay
Compound cytotoxicity and the corresponding CC50 values was determined using the same protocol as described in the antiviral assay (Test A) except that uninfected cells were used.

Where [2] appears, read: Human immunodeficiency virus 1, MT4, 120 h, percent inhibition of virus-induced cell killing at 6 μM drug concentration, from the dose response curve, MT-4 cells infected with HIV-IIIb, 5 days.
Setting [3] is: Human immunodeficiency virus 1, IIIB, MT4, 120 h.

The term inhibition denotes the relative decrease from the control value, in per cent. In general, CC50 refers to the concentration giving 50% cytotoxicity. For the molecule `Cc1nc(-c2ccccc2)c([C@H](Cc2ccccc2)NC(=O)Cn2nc(C(F)(F)F)c3c2CCCC3)s1` [Compound 16, (S)—N-(1-(2-methyl-4-phenylthiazol-5-yl)-2-phenylethyl)-2-(3-(trifluoromethyl)-4,5,6,7-tetrahydro-1H-indazol-1-yl)acetamide], the inhibition at 6 µM in the series on HIV-IIIb (setting [2]) turned out to be 0%. Also, the midpoint of cytotoxicity in series [1], the CC50 at 5 days, lay at 51.9 µM.

On to `Cc1ccccc1-c1scnc1C(Cc1cc(F)cc(F)c1)NC(=O)Cn1nc(C(F)(F)F)c2c1CCCC2` (stereo not drawn) [Compound 14, N-(2-(3,5-difluorophenyl)-1-(5-(o-tolyl)thiazol-4-yl)ethyl)-2-(3-(trifluoromethyl)-4,5,6,7-tetrahydro-1H-indazol-1-yl)acetamide], for which the inhibition at 6 µM in the series with HIV-IIIb (setting [2]) came to 60%. In series [1], this molecule gave a CC50 at 5 days of 11.3 µM.

As to `O=C(Cc1c[nH]c2ccc(F)cc12)NC(Cc1cc(F)cc(F)c1)c1cnc(-c2ccc(Cl)cc2)o1` (stereo not drawn) [Compound 19F, N-(1-(2-(4-chlorophenyl)oxazol-5-yl)-2-(3,5-difluorophenyl)ethyl)-2-(5-fluoro-1H-indol-3-yl)acetamide], the inhibition at 6 µM with HIV-IIIb (setting [2]) was 0%. In addition, the CC50 at 5 days in series [1] was determined as 9.14 µM.

As to `O=C(Cc1c[nH]c2ccc(O)cc12)NC(Cc1cc(F)cc(F)c1)c1ncoc1-c1ccc(Cl)cc1` (stereo not drawn) [Compound 34, N-(1-(5-(4-chlorophenyl)oxazol-4-yl)-2-(3,5-difluorophenyl)ethyl)-2-(5-hydroxy-1H-indol-3-yl)acetamide], in the series on HIV-IIIb (setting [2]), the inhibition at 6 µM came out at 0%. The molecule further came in with a CC50 at 5 days in series [1] of 22.1 µM.

With `O=C(Cn1nc(C(F)(F)F)c2c1CCCC2)N[C@@H](Cc1cc(F)cc(F)c1)c1nocc1-c1ccc(Cl)cc1` [Compound 27, (S)—N-(1-(4-(4-chlorophenyl)isoxazol-3-yl)-2-(3,5-difluorophenyl)ethyl)-2-(3-(trifluoromethyl)-4,5,6,7-tetrahydro-1H-indazol-1-yl)acetamide], in the series with HIV-IIIb (setting [2]), the inhibition at 6 µM worked out at 28%. Moreover, the CC50 at 5 days in series [1] amounted to 6.17 µM.

As to `O=C(Cc1c[nH]c2ccc(O)cc12)NC(Cc1ccccc1)c1cnnn1-c1ccccc1` (stereo not drawn) [Compound 12, 2-(5-hydroxy-1H-indol-3-yl)-N-(2-phenyl-1-(1-phenyl-1H-1,2,3-triazol-5-yl)ethyl)acetamide], the inhibition at 6 µM in the series on HIV-IIIb (setting [2]) stood at 4%. Also, in series [1], the CC50 at 5 days is > 53 µM.

`O=C(Cn1nc(C(F)(F)F)c2c1CCCC2)NC(Cc1ccccc1)c1cnnn1-c1ccccc1` (stereo not drawn) [Compound 9E, N-(2-phenyl-1-(1-phenyl-1H-1,2,3-triazol-5-yl)ethyl)-2-(3-(trifluoromethyl)-4,5,6,7-tetrahydro-1H-indazol-1-yl)acetamide]: the inhibition at 6 µM with HIV-IIIb (setting [3]) amounted to 0%. The molecule also displayed a CC50 at 5 days in series [1] of 13.2 µM.

`O=C(Cn1nc(C(F)(F)F)c2c1CCCC2)NC(Cc1cc(F)cc(F)c1)c1cnc(-c2ccc(Cl)cc2)o1` (stereo not drawn) [Compound 20, N-(1-(2-(4-chlorophenyl)oxazol-5-yl)-2-(3,5-difluorophenyl)ethyl)-2-(3-(trifluoromethyl)-4,5,6,7-tetrahydro-1H-indazol-1-yl)acetamide]: in the series with HIV-IIIb (setting [3]), the inhibition at 6 µM came to 1%. Also, the CC50 at 5 days in series [1] turned out to be 12.2 µM.

Consider `O=C(Cc1c[nH]c2ccc(O)nc12)NC(Cc1cc(F)cc(F)c1)c1ncoc1-c1ccc(Cl)cc1` (stereo not drawn) [Compound 38, N-(1-(5-(4-chlorophenyl)oxazol-4-yl)-2-(3,5-difluorophenyl)ethyl)-2-(5-hydroxy-1H-pyrrolo[3,2-b]pyridin-3-yl)acetamide], for which the inhibition at 6 µM with HIV-IIIb (setting [2]) came out at 0%. In series [1], this molecule returned a CC50 at 5 days of 19.1 µM.

Consider `COc1ccc2[nH]cc(CC(=O)NC(Cc3cc(F)cc(F)c3)c3ncoc3-c3ccc(Cl)cc3)c2n1` (stereo not drawn) [Compound 35, N-(1-(5-(4-chlorophenyl)oxazol-4-yl)-2-(3,5-difluorophenyl)ethyl)-2-(5-methoxy-1H-pyrrolo[3,2-b]pyridin-3-yl)acetamide], for which, in the series with HIV-IIIb (setting [2]), the inhibition at 6 µM was found to be 0%. The molecule further came in with a CC50 at 5 days in series [1] of 15.3 µM.

For the molecule `Cc1nnc(C(Cc2ccccc2)NC(=O)Cc2c[nH]c3ccc(O)cc23)n1-c1ccccc1` (stereo not drawn) [Compound 10G, 2-(5-hydroxy-1H-indol-3-yl)-N-(1-(5-methyl-4-phenyl-4H-1,2,4-triazol-3-yl)-2-phenylethyl)acetamide], the inhibition at 6 µM with HIV-IIIb (setting [2]) is 51%. Moreover, the CC50 at 5 days in series [1] is > 53.2 µM.

Regarding `COc1ccc(-n2ccnc2[C@@H](Cc2cc(F)cc(F)c2)NC(=O)Cn2nc(C(F)(F)F)c3c2CCCC3)cc1` [Compound 6B, (R)—N-(2-(3,5-difluorophenyl)-1-(1-(4-methoxyphenyl)-1H-imidazol-2-yl)ethyl)-2-(3-(trifluoromethyl)-4,5,6,7-tetrahydro-1H-indazol-1-yl)acetamide], the inhibition at 6 µM in the series with HIV-IIIb (setting [3]) was 4%. Also, in series [1], it took 12 µM to reach half-maximal cytotoxicity (CC50 at 5 days).
